This passage reports EC50 results from patent US10556907B2 (AbbVie Inc., priority 2015, dated 2020).

Where two headings read alike, the source gives them in different places.

What all share (assay): Method 1: intracellular Ca2+ release (FLIPR, Calcium 5) in recombinant CHO-K1 cells
Holding throughout (assay type): cell-based

One assay addresses T1, human S1PR5 receptor (Homo sapiens, UniProt Q9H228).
T1 construct: host or cells: CHO-K1
How it is done:
(§1) Agonistic activity was measured using two different methods, described below.
(§2) Method 1. Intracellular Ca^2+ Release
(§3) Agonist potency and intrinsic activity was assessed by measurement of intracellular Ca^2+ release. Recombinant CHO-K1 cells (Euroscreen, Brussels, Belgium) expressing human S1PR5, S1PR1, S1PR3 or S1PR4 receptors, aequorin, and GTP binding protein Gq/i5 were cultured using a medium containing nutrient mixture F-12 Ham (Sigma-Aldrich) with 10% FBS, and 100 μg/mL gentamicin and equilibrated at 5% CO2.
(§4) 15.000 cells in 20 μL medium were seeded into Biocoat poly-D-Lysine coated 384 well plates (Becton Dickinson #35-6663) and grown to 95% confluency after 24 h.
(§5) Culture medium was replaced by an assay buffer consisting of HBBS with Ca^2+ and Mg^2+ (Invitrogen #14025-050), 20 mmol/L Hepes (Sigma-Aldrich #H-3375), 2.5 mmol/L probenecid (Sigma-Aldrich #P-8761, and 0.1% BSA (Sigma-Aldrich #A-7030) pH 7.4. The Calcium 5 no-wash FLIPR assay kit (Molecular Devices #5000625) was performed as described in the kit instructions. Cells were incubated with Calcium 5 dye for 1 h at 37° C., 5% CO2 in the dark. After 45 min adaptation to RT assessment of agonist stimulation of intracellular Ca^2+ release was performed by addition of test compounds at concentrations obtained by serial dilution. Phospho-fingolimod was used as positive control. Antagonists were pre-incubated for 10 min with cells before addition of the agonist (phospho-fingolimod at EC80). Measurements were performed using a fluorometric imaging plate reader FLIPR® tetra (Molecular Devices). Agonist at the human S1P receptors were characterized by deducing EC50 (potency) values from a nonlinear fit to the measured fluorescence raw data after normalization to the reference agonist (phospho-fingolimod) curve.

A further assay deals with T2, human S1PR1 receptor (Homo sapiens, UniProt P21453).
T2 construct: host or cells: CHO-K1
The following applies: (1): determined with method 1; read-out: S1P1 EC50. As for the experimental part:
as §1, §2, §3, §4, §5

A further assay addresses T3, human S1PR3 receptor (Homo sapiens, UniProt Q99500).
T3 construct: host or cells: CHO-K1
The following applies: (1): determined with method 1; read-out: S1P3 EC50. How it is done:
as §1, §2, §3, §4, §5

The mark [1] stands for this setting: agonist potency, determined with method 1 (symbols A-D), read-out: S1P5 EC50 range.

T2 sequence (P21453 whole entry): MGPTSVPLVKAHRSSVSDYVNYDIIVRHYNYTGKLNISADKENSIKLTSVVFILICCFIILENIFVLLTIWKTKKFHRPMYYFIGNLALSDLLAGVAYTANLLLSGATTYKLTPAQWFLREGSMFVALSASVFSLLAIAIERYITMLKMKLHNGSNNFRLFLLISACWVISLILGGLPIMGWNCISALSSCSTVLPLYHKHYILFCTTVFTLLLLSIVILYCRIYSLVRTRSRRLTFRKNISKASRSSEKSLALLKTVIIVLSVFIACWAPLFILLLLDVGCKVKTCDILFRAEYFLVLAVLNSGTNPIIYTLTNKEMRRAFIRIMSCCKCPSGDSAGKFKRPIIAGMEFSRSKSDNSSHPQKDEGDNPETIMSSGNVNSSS
T1 sequence (Q9H228 whole entry): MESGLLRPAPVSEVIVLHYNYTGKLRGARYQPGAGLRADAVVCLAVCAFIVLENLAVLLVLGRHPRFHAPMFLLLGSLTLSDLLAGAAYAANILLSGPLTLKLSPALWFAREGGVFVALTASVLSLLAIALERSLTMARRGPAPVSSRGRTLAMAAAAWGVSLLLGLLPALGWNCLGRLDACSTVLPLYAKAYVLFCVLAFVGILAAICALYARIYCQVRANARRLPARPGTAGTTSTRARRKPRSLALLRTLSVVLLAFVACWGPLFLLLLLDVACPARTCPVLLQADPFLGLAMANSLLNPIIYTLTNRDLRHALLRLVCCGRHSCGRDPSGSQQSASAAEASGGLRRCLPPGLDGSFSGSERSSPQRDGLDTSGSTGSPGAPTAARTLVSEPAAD
T3 sequence (Q99500 whole entry): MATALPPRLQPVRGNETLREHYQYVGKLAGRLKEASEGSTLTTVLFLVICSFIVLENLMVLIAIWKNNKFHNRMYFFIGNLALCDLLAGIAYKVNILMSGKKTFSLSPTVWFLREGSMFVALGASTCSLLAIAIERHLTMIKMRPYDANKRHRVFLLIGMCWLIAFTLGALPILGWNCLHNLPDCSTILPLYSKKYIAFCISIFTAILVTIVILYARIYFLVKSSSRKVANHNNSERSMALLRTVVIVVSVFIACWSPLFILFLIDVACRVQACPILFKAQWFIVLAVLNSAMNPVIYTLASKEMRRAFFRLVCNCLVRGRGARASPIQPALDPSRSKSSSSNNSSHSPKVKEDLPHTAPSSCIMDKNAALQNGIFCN

Turning to `O=C(O)CCN1CCc2nc(-c3ccc(OCc4ccccc4OC(F)F)cc3)ncc2C1` [Compound 90, 3-(2-(4-((2-(difluoromethoxy)benzyl)oxy)phenyl)-7,8-dihydropyrido[4,3-d]pyrimidin-6(5H)-yl)propanoic acid], the EC50 was 0.01 to 0.1 µM on human S1PR5 receptor (setting [1]), greater than 1 µM on human S1PR1 receptor and greater than 1 µM at human S1PR3 receptor.
As to `CC(CN1CCc2nc(-c3ccc(OCc4ccccc4)c(F)c3)ccc2C1)C(=O)O` (stereo not shown) [Compound 103, 3-(2-(4-(benzyloxy)-3-fluorophenyl)-7,8-dihydro-1,6-naphthyridin-6(5H)-yl)-2-methylpropanoic acid], the EC50 at human S1PR5 receptor (setting [1]) was 0.01 to 0.1 µM; on human S1PR1 receptor it was greater than 1 µM; on human S1PR3 receptor, greater than 1 µM.
Regarding `O=C(O)CCCN1CCc2nc(-c3ccc(OCc4cccc(Cl)c4)cc3)ncc2C1` [Compound 38, 4-(2-(4-((3-chlorobenzyl)oxy)phenyl)-7,8-dihydropyrido[4,3-d]pyrimidin-6(5H)-yl)butanoic acid], the EC50 on human S1PR5 receptor (setting [1]) was less than 0.01 µM; at human S1PR1 receptor it was greater than 1 µM; at human S1PR3 receptor, greater than 1 µM.
Consider `CC(CN1CCc2nc(-c3ccc(OCc4ccccc4F)c(Cl)c3)ccc2C1)C(=O)O` (stereo not shown) [Compound 105, 3-(2-(4-((2-fluorobenzyl)oxy)-3-chlorophenyl)-7,8-dihydro-1,6-naphthyridin-6(5H)-yl)-2-methylpropanoic acid], for which the EC50 at human S1PR5 receptor (setting [1]) was 0.1 to 1 µM; at human S1PR1 receptor, greater than 1 µM; on human S1PR3 receptor, greater than 1 µM.
`CCc1cccc(Cl)c1COc1ccc(-c2nc3c(cc2F)CN(CCC(=O)O)CC3)cc1` [Compound 196, 3-(2-(4-((2-chloro-6-ethylbenzyl)oxy)phenyl)-3-fluoro-7,8-dihydro-1,6-naphthyridin-6(5H)-yl)propanoic acid]: the figures for the concentration for a half-maximal effect (EC50) at human S1PR5 receptor (setting [1]), on human S1PR1 receptor and on human S1PR3 receptor were 0.01 to 0.1 µM, greater than 1 µM and greater than 1 µM, respectively.
With `O=C(O)CCN1CCc2ncc(-c3ccc(OCc4ccccc4)cc3)nc2C1` [Compound 221, 3-(3-(4-(benzyloxy)phenyl)-7,8-dihydropyrido[3,4-b]pyrazin-6(5H)-yl)propanoic acid], the values for the EC50 on human S1PR5 receptor (setting [1]), at human S1PR1 receptor and at human S1PR3 receptor were 1 to 10 µM, greater than 1 µM and greater than 1 µM, respectively.
Turning to `O=C(O)CCCN1Cc2cnc(-c3ccc(OCc4ccccc4)cc3)nc2C1` [Compound 99, 4-(2-(4-(benzyloxy)phenyl)-5H-pyrrolo[3,4-d]pyrimidin-6(7H)-yl)butanoic acid], the EC50 on human S1PR5 receptor (setting [1]) was 1 to 10 µM; on human S1PR1 receptor, greater than 1 µM; on human S1PR3 receptor, greater than 1 µM.
As to `O=C(O)CCN1Cc2cnc(-c3ccc(OCc4ccccc4)cc3)nc2C1` [Compound 100, 3-(2-(4-(benzyloxy)phenyl)-5H-pyrrolo[3,4-d]pyrimidin-6(7H)-yl)propanoic acid], the 50% effective concentration (EC50) at human S1PR5 receptor (setting [1]) was 1 to 10 µM; at human S1PR1 receptor, greater than 1 µM; at human S1PR3 receptor, greater than 1 µM.
Consider `O=C(O)CCN1CCc2nc(-c3ccc(OCc4cccc(OC(F)(F)F)c4)cc3)ccc2C1` [Compound 151, 3-(2-(4-((3-trifluoromethoxybenzyl)oxy)phenyl)-7,8-dihydro-1,6-naphthyridin-6(5H)-yl)propanoic acid], for which the EC50 was less than 0.01 µM on human S1PR5 receptor (setting [1]), less than 1 µM at human S1PR1 receptor and greater than 1 µM on human S1PR3 receptor.
Taken in the same sequence, the figures for `O=C(O)CCN1CCc2ncc(-c3ccc(OCc4ccc(Cl)cc4)cc3)nc2C1` [Compound 223, 3-(3-(4-((4-chlorobenzyl)oxy)phenyl)-7,8-dihydropyrido[3,4-b]pyrazin-6(5H)-yl)propanoic acid] were 1 to 10 µM, greater than 1 µM and greater than 1 µM.
The like results for `Cc1cc(-c2ccc3c(n2)CCN(C2CC(C(=O)O)C2)C3)ccc1OCc1ccccc1` (stereo not shown) [Compound 117, 3-(2-(4-(benzyloxy)-3-methylphenyl)-7,8-dihydro-1,6-naphthyridin-6(5H)-yl)cyclobutanecarboxylic acid] were, in that order, 0.1 to 1 µM, greater than 1 µM and greater than 1 µM.
Taken in the same sequence, the figures for `O=C(O)CCCN1CCc2nc(C#Cc3cc(F)ccc3F)ncc2C1` [Compound 49, 4-(2-((2,5-difluorophenyl)ethynyl)-7,8-dihydropyrido[4,3-d]pyrimidin-6(5H)-yl)butanoic acid] were 1 to 10 µM, greater than 1 µM and greater than 1 µM.
`O=C(O)CCN1CCc2nc(-c3ccc(OCc4ccccc4C(F)F)cc3)ncc2C1` [Compound 78, 3-(2-(4-((2-difluoromethylbenzyl)oxy)phenyl)-7,8-dihydropyrido[4,3-d]pyrimidin-6(5H)-yl)propanoic acid]: the EC50 at human S1PR5 receptor (setting [1]) was less than 0.01 µM; on human S1PR1 receptor it was greater than 1 µM; at human S1PR3 receptor, greater than 1 µM.
As for `CC(CC(=O)O)N1Cc2ccc(-c3ccc(OCc4c(Cl)cccc4Cl)cc3)nc2C1` (stereo not shown) [Compound 201, 3-(2-(4-((2,6-dichlorobenzyl)oxy)phenyl)-5H-pyrrolo[3,4-b]pyridin-6(7H)-yl)butanoic acid], the EC50 is 1 to 10 µM at human S1PR5 receptor (setting [1]), greater than 1 µM on human S1PR1 receptor and greater than 1 µM on human S1PR3 receptor.
Regarding `CC(CN1CCc2nc(-c3ccc(OCc4cccc(F)c4F)cc3)ncc2C1)C(=O)O` (stereo not shown) [Compound 16, 3-(2-(4-((2,3-difluorobenzyl)oxy)phenyl)-7,8-dihydropyrido[4,3-d]pyrimidin-6(5H)-yl)-2-methylpropanoic acid], the EC50 at human S1PR5 receptor (setting [1]) is less than 0.01 µM; at human S1PR1 receptor it was less than 1 µM; on human S1PR3 receptor, greater than 1 µM.
On to `O=C(O)CCN1CCc2nc(-c3ccc(OCc4ccccc4OC(F)(F)F)cc3)ncc2C1` [Compound 84, 3-(2-(4-((2-(trifluoromethoxy)benzyl)oxy)phenyl)-7,8-dihydropyrido[4,3-d]pyrimidin-6(5H)-yl)propanoic acid], for which the concentration for a half-maximal effect (EC50) at human S1PR5 receptor (setting [1]) was 0.01 to 0.1 µM; at human S1PR1 receptor, greater than 1 µM; on human S1PR3 receptor it was greater than 1 µM.
For the molecule `O=C(O)CCN1CCc2nc(-c3ccc(OCc4ccc(OC(F)(F)F)cc4)cc3)ccc2C1` [Compound 153, 3-(2-(4-((4-trifluoromethoxybenzyl)oxy)phenyl)-7,8-dihydro-1,6-naphthyridin-6(5H)-yl)propanoic acid], the EC50 at human S1PR5 receptor (setting [1]) is 0.1 to 1 µM; on human S1PR1 receptor, greater than 1 µM; on human S1PR3 receptor, greater than 1 µM.
Turning to `O=C(O)CCN1Cc2ccc(-c3cccc(OCc4ccccc4)c3)nc2C1` [Compound 204, 3-(2-(3-(benzyloxy)phenyl)-5H-pyrrolo[3,4-b]pyridin-6(7H)-yl)propanoic acid], the EC50 was 1 to 10 µM on human S1PR5 receptor (setting [1]), greater than 1 µM on human S1PR1 receptor and greater than 1 µM on human S1PR3 receptor.
Turning to `O=C(O)CCN1CCc2nc(-c3ccc(OCc4cccc(Cl)c4)cc3)ncc2C1` [Compound 72, 3-(2-(4-((3-chlorobenzyl)oxy)phenyl)-7,8-dihydropyrido[4,3-d]pyrimidin-6(5H)-yl)propanoic acid], the concentration for a half-maximal effect (EC50) on human S1PR5 receptor (setting [1]) was less than 0.01 µM; at human S1PR1 receptor it was greater than 1 µM; at human S1PR3 receptor it was greater than 1 µM.
As for `CC(C)Oc1ccc(-c2ncc3c(n2)CCN(CCC(=O)O)C3)cc1Cl` [Compound 79, 3-(2-(3-chloro-4-isopropoxyphenyl)-7,8-dihydropyrido[4,3-d]pyrimidin-6(5H)-yl)propanoic acid], the EC50 is 1 to 10 µM at human S1PR5 receptor (setting [1]), greater than 1 µM on human S1PR1 receptor and greater than 1 µM on human S1PR3 receptor.
`O=C(O)CCN1CCc2nc(-c3ccc(OCc4cccc(C(F)(F)F)c4)cc3)ncc2C1` [Compound 86, 3-(2-(4-((3-(trifluoromethyl)benzyl)oxy)phenyl)-7,8-dihydropyrido[4,3-d]pyrimidin-6(5H)-yl)propanoic acid]: the figures for the EC50 at human S1PR5 receptor (setting [1]), on human S1PR1 receptor and on human S1PR3 receptor were less than 0.01 µM, greater than 1 µM and greater than 1 µM, respectively.
`O=C(O)CC1(CN2CCc3nc(-c4ccc(OCc5cccc(Cl)c5)cc4)ncc3C2)CC1` [Compound 327, 2-((4(2-(4-((3-chlorobenzyl)oxy)phenyl)-7,8-dihydropyrido[4,3-d]pyrimidin-6(5H)-yl)methyl)cyclopropyl)acetic acid]: the EC50 on human S1PR5 receptor (setting [1]) is 1 to 10 µM.
For the molecule `CC(CC(=O)O)CN1Cc2cnc(-c3ccc(OCc4ccc(Cl)cc4)cc3)nc2CC12CCC2` (stereo not shown) [Compound 326, 4-(2′-(4-((4-chlorobenzyl)oxy)phenyl)-5′H-spiro[cyclobutane-1,7′-pyrido[4,3-d]pyrimidin]-6′(8′H)-yl)-3-methylbutanoic acid], the EC50 is greater than 1 µM at human S1PR5 receptor ((1): determined with method 1, read-out: S1P5 EC50 range (bound printed instead of class symbol)) and greater than 1 µM on human S1PR3 receptor.
With `O=C(O)CC1(CN2CCc3nc(-c4ccc(OCc5ccc(Cl)cc5)cc4)ncc3C2)CC1` [Compound 286, 2-((4(2-(4-((4-chlorobenzyl)oxy)phenyl)-7,8-dihydropyrido[4,3-d]pyrimidin-6(5H)-yl)methyl)cyclopropyl)acetic acid], the EC50 at human S1PR5 receptor (setting [1]) fell in the range of 0.1 to 1 µM.
